Data reported in patent US9238656B2, “Imidazo[4,5-b]pyridine derivatives as ALK and JAK modulators for the treatment of proliferative disorders” (priority 2012, dated 2016).
Values joined by “and” are separate entries in the source; they are usually repeats but may differ in a detail not shown here. Equal entries are not always repeated. Structures can show the parent of a compound that is named as a salt. Where two headings read alike, the source gives them in different places.

Tests used:
[1] = molecular target: baculovirus-expressed ALK (Homo sapiens, UniProt Q9UM73); assay: ALK kinase inhibition, TRF/ELISA; assay type: biochemical; details: read-out: ALK Potency
Summary of the method: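 Plates were coated with GST-PLC-γ substrate (10 μg/mL) and the reaction was started with 30 ng/mL ALK, running 15 min at 37° C. Phosphotyrosine was detected by time-resolved fluorescence with Eu-labeled PT66 antibody. IC50s came from variable-slope sigmoidal fits of percent inhibition versus log concentration.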

[2] = molecular target: baculovirus-expressed JAK2 kinase (Homo sapiens, UniProt O60674); assay: biochemical
Summary of the method: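 Time-resolved fluorescence kinase assay using 15 ng/mL baculovirus-expressed JAK2 on Neutravidin-captured biotinylated 15-mer peptide substrate, reaction 20 min at room temperature. IC50 from percent inhibition versus log concentration, sigmoidal variable-slope fit.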

[3] = 0.2 μM ATP, read-out: JAK2 Potency

Chain of baculovirus-expressed JAK2 kinase (O60674 whole entry): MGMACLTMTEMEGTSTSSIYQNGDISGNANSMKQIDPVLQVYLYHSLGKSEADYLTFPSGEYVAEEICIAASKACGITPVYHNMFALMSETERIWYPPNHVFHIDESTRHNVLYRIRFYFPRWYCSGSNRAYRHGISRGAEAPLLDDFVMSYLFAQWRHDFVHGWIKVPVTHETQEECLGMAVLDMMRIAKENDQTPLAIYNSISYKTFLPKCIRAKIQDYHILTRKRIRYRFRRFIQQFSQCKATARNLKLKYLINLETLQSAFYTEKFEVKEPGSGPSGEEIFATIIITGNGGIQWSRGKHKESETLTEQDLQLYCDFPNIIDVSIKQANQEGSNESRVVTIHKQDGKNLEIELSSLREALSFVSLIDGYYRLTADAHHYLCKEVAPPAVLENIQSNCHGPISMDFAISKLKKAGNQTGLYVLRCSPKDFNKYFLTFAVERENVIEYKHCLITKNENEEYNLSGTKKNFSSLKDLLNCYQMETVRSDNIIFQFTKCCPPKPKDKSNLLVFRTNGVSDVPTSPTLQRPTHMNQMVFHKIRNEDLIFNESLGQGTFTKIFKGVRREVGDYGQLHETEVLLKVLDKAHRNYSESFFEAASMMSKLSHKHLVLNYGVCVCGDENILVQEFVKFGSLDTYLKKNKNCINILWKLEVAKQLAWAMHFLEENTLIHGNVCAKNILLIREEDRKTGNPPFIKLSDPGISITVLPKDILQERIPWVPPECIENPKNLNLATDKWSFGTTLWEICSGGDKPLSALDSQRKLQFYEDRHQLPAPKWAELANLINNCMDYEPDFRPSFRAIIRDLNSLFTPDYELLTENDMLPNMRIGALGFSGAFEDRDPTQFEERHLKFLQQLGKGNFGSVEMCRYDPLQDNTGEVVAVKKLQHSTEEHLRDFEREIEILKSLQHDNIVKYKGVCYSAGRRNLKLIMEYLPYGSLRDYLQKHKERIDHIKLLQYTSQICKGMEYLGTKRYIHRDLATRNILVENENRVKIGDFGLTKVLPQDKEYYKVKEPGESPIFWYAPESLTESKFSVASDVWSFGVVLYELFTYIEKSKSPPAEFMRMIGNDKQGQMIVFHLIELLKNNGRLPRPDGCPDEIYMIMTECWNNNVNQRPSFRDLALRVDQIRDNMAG
Chain of baculovirus-expressed ALK (Q9UM73 19-1620): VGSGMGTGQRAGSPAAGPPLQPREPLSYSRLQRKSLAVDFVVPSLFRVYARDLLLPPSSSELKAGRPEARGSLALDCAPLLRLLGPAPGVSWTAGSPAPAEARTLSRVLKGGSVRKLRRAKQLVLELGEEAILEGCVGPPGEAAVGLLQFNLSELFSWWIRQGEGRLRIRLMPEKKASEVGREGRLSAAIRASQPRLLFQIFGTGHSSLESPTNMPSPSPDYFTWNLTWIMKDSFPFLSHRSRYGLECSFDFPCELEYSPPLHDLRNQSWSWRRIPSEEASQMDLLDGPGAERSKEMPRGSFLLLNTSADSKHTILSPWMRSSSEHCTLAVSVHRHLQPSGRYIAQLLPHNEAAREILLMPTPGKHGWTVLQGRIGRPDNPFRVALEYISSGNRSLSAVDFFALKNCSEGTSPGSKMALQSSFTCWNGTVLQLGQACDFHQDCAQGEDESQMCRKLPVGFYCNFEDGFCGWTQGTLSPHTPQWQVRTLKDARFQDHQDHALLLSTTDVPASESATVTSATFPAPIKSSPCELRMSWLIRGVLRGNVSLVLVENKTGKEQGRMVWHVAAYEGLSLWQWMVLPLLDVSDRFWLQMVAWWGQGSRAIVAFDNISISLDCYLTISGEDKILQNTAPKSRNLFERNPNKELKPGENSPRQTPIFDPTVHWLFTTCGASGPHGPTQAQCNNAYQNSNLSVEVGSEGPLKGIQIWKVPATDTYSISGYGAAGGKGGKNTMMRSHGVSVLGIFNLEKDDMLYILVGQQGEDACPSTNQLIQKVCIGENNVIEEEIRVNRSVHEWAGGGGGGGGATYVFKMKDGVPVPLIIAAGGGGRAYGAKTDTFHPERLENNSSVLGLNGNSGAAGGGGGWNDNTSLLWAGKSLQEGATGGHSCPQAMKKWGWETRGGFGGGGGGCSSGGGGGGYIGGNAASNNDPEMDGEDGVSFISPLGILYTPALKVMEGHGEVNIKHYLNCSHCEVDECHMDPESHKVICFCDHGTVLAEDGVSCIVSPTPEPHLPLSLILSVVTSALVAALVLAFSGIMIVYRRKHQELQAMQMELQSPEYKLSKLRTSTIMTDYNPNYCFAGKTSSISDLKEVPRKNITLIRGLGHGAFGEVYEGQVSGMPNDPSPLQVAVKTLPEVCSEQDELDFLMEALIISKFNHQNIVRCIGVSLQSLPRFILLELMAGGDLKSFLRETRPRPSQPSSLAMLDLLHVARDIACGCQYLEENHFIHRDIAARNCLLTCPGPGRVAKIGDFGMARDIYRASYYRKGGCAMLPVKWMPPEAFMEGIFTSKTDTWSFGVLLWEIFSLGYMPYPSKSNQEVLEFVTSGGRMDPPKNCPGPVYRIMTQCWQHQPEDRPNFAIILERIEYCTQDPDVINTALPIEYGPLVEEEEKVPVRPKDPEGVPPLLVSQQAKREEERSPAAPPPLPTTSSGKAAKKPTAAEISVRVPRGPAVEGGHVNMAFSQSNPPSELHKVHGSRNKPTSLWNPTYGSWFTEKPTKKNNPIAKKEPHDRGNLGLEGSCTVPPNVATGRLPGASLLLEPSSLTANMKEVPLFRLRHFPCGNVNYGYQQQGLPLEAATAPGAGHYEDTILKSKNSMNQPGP

| Structure (SMILES) | IC50 [1] | IC50 [2, 3] | IC50 ([2]; JAK2 Potency) |
| --- | --- | --- | --- |
| COc1cc(N2CCOCC2)ccc1-c1nc2c(NC34CCC(C)(C(O)C3)C4(C)C)c(Cl)cnc2[nH]1 (stereo not shown) [Compound CCIII, 4-(6-chloro-2-(2-methoxy-4-morpholinophenyl)-3H-imidazo[4,5-b]pyridin-7-ylamino)-1,7,7-trimethylbicyclo[2.2.1]heptan-2-ol] | 100 to 1000 nM | 100 to 1000 nM |  |
| CN1CCN(C(=O)c2ccc(-c3nc4c(N[C@H]5[C@@H](C(N)=O)[C@@H]6C=C[C@H]5C6)c(Cl)cnc4[nH]3)cc2)CC1 [Compound CCXXII, (1S,2S,3R,4R)-3-(6-chloro-2-(4-(4-methylpiperazine-1-carbonyl)phenyl)-3H-imidazo[4,5-b]pyridin-7-ylamino)bicyclo[2.2.1]hept-5-ene-2-carboxamide] | < 100 nM | < 100 nM |  |
| CN1CCN(Cc2ccc(-c3nc4c(N[C@H]5[C@@H](C(N)=O)[C@@H]6C=C[C@H]5C6)c(Cl)cnc4[nH]3)cc2)CC1 [Compound XX, (1S,2S,3R,4R)-3-{6-Chloro-2-[4-(4-methyl-piperazin-1-ylmethyl)-phenyl]-3H-imidazo[4,5-b]pyridin-7-ylamino}-bicyclo[2.2.1]hept-5-ene-2-carboxylic acid amide; compound with trifluoro-acetic acid bis trifluoroacetic acid salt] | < 100 nM | < 100 nM |  |
| N#Cc1ccc(-c2nc3c(N[C@H]4[C@@H](C(N)=O)[C@@H]5C=C[C@H]4C5)c(Cl)cnc3[nH]2)cc1 [Compound CXLV, (1S,2S,3R,4R)-3-[6-Chloro-2-(4-cyano-phenyl)-3H-imidazo[4,5-b]pyridin-7-ylamino]-bicyclo[2.2.1]hept-5-ene-2-carboxylic acid amide] | 100 to 1000 nM | < 100 nM |  |
| COc1cc(N2CCOCC2)ccc1-c1nc2c(N3C[C@@H]4C[C@H]3CN4)c(Cl)cnc2[nH]1 [Compound XXXVII, 6-Chloro-7-(1S,4S)-2,5-diaza-bicyclo[2.2.1]hept-2-yl-2-(2-methoxy-4-morpholin-4-yl-phenyl)-3H-imidazo[4,5-b]pyridine hydrochloride] | > 10000 nM |  | 1000 to 10000 nM |
| NC(=O)[C@@H]1[C@H](Nc2c(Cl)cnc3[nH]c(-c4ccc(N5CCOCC5)cc4Cl)nc23)[C@H]2C=C[C@@H]1C2 [Compound CXX, (1S,2S,3R,4R)-3-[6-Chloro-2-(2-chloro-4-morpholin-4-yl-phenyl)-3H-imidazo[4,5-b]pyridin-7-ylamino]-bicyclo[2.2.1]hept-5-ene-2-carboxylic acid amide] | < 100 nM | < 100 nM |  |
| COc1cc(N2CCOCC2)ccc1-c1nc2c(N[C@H]3[C@@H](C(N)=O)[C@@H]4CC[C@H]3O4)c(Cl)cnc2[nH]1 [Compound CCVI, (1S,2R,3S,4R)-3-(6-chloro-2-(2-methoxy-4-morpholinophenyl)-3H-imidazo[4,5-b]pyridin-7-ylamino)-7-oxabicyclo[2.2.1]heptane-2-carboxamide] | 100 to 1000 nM | 1000 to 10000 nM |  |
| CC(C)(C)OC(=O)N1CCCC(c2nc3c(N[C@H]4[C@@H](C(N)=O)[C@@H]5C=C[C@H]4C5)c(Cl)cnc3[nH]2)C1 (stereo partly drawn) [Compound XI, 3-[7-((1R,2R,3S,4S)-3-Carbamoyl-bicyclo[2.2.1]hept-5-en-2-ylamino)-6-chloro-3H-imidazo[4,5-b]pyridine-2-yl]-piperidine-1-carboxylic acid tert-butyl ester] | > 10000 nM | > 10000 nM |  |
| COC[C@H](O)CN1CCC(n2cc(-c3nc4c(N[C@H]5[C@@H](C(N)=O)[C@@H]6C=C[C@H]5C6)c(Cl)cnc4[nH]3)cn2)CC1 [Compound LX, (1S,2S,3R,4R)-3-(6-Chloro-2-{1-[1-((R)-2-hydroxy-3-methoxy-propyl)-piperidin-4-yl]-1H-pyrazol-4-yl}-3H-imidazo[4,5-b]pyridine-7-ylamino)-bicyclo[2.2.1]hept-5-ene-2-carboxylic acid amide] | < 100 nM | < 100 nM |  |
| NC(=O)[C@@H]1[C@H](Nc2c(Cl)cnc3[nH]c(-c4ccc(C(=O)N5CCNC(C(=O)O)C5)cc4)nc23)[C@H]2C=C[C@@H]1C2 (stereo partly drawn) [Compound CCXXVI, 4-(4-(7-((1R,2R,3S,4S)-3-carbamoylbicyclo[2.2.1]hept-5-en-2-ylamino)-6-chloro-3H-imidazo[4,5-b]211pyridine-2-yl)benzoyl)piperazine-2-carboxylic acid] | < 100 nM | < 100 nM |  |

More lines, main results first:

| IC50 [1] | IC50 [2, 3] | Structure (SMILES) | IC50 ([2]; JAK2 Potency) |
| --- | --- | --- | --- |
| 1000 to 10000 nM | > 10000 nM | CN1CCC(c2nc3c(N[C@H]4[C@@H](C(N)=O)[C@@H]5C=C[C@H]4C5)c(Cl)cnc3[nH]2)CC1 [Compound CL, (1S,2S,3R,4R)-3-[6-Chloro-2-(1-methyl-piperidin-4-yl)-3H-imidazo[4,5-b]pyridin-7-ylamino]-bicyclo[2.2.1]hept-5-ene-2-carboxylic acid amide] |  |
| 100 to 1000 nM | < 100 nM | NC(=O)[C@@H]1[C@H](Nc2c(Cl)cnc3[nH]c(-c4ccc(O)cc4)nc23)[C@H]2C=C[C@@H]1C2 [Compound CCXXXIV, (1S,2S,3R,4R)-3-(6-chloro-2-(4-hydroxyphenyl)-3H-imidazo[4,5-b]pyridin-7-ylamino)bicyclo[2.2.1]hept-5-ene-2-carboxamide] |  |
| 100 to 1000 nM | < 100 nM | NC(=O)CN1CCC(n2cc(-c3nc4c(N[C@H]5[C@@H](C(N)=O)[C@@H]6C=C[C@H]5C6)c(Cl)cnc4[nH]3)cn2)CC1 [Compound LXVI, (1S,2S,3R,4R)-3-{2-[1-(1-Carbamoylmethyl-piperidin-4-yl)-1H-pyrazol-4-yl]-6-chloro-3H-imidazo[4,5-b]pyridine-7-ylamino}-bicyclo[2.2.1]hept-5-ene-2-carboxylic acid amide, trifluoroacetic acid salt] |  |
| 100 to 1000 nM | 100 to 1000 nM | COc1ccncc1-c1nc2c(N[C@H]3[C@@H](C(N)=O)[C@@H]4C=C[C@H]3C4)c(Cl)cnc2[nH]1 [Compound XXXV, (1S,2S,3R,4R)-3-[6-Chloro-2-(4-methoxy-pyridin-3-yl)-3H-imidazo[4,5-b]pyridine-7-ylamino]-bicyclo[2.2.1]hept-5-ene-2-carboxylic acid amide] |  |
| < 100 nM | > 10000 nM | COc1cc(N2CCOCC2)ccc1-c1nc2c(N[C@@H]3CCCC[C@H]3NS(C)(=O)=O)c(Cl)cnc2[nH]1 [Compound LXXII, N-{(1R,2R)-2-[6-Chloro-2-(2-methoxy-4-morpholin-4-yl-phenyl)-3H-imidazo[4,5-b]pyridine-7-ylamino]-cyclohexyl}-methanesulfonamide] |  |
| < 100 nM | 1000 to 10000 nM | COc1cc(CN2CCN(C)CC2)ccc1-c1nc2c(N[C@@H]3CCCC[C@H]3NS(C)(=O)=O)c(Cl)cnc2[nH]1 [Compound LXXI, N-((1R,2R)-2-{6-Chloro-2-[2-methoxy-4-(4-methyl-piperazin-1-ylmethyl)-phenyl]-3H-imidazo[4,5-b]pyridine-7-ylamino}-cyclohexyl)-methanesulfonamide] |  |
| 100 to 1000 nM | > 10000 nM | COc1ccc(CN2CCOCC2)cc1-c1nc2c(N[C@@H]3CCCC[C@H]3NS(C)(=O)=O)c(Cl)cnc2[nH]1 [Compound LXXIV, N-{(1R,2R)-2-[6-Chloro-2-(2-methoxy-5-morpholin-4-ylmethyl-phenyl)-3H-imidazo[4,5-b]pyridine-7-ylamino]-cyclohexyl}-methanesulfonamide] |  |
| < 100 nM | < 100 nM | CN1CCC(Oc2ccc(-c3nc4c(N[C@H]5[C@@H](C(N)=O)[C@@H]6C=C[C@H]5C6)c(Cl)cnc4[nH]3)cc2)CC1 [Compound CCXLV, (1S,2S,3R,4R)-3-(6-chloro-2-(4-(1-methylpiperidin-4-yloxy)phenyl)-3H-imidazo[4,5-b]pyridin-7-ylamino)bicyclo[2.2.1]hept-5-ene-2-carboxamide] |  |
| < 100 nM | < 100 nM | CN1CCN(c2ncc(-c3nc4c(N[C@H]5[C@@H](C(N)=O)[C@@H]6C=C[C@H]5C6)c(Cl)cnc4[nH]3)s2)CC1 [Compound CCXI, (1S,2S,3R,4R)-3-(6-chloro-2-(2-(4-methylpiperazin-1-yl)thiazol-5-yl)-3H-imidazo[4,5-b]pyridin-7-ylamino)bicyclo[2.2.1]hept-5-ene-2-carboxamide] |  |
| 1000 to 10000 nM | < 100 nM | NC(=O)[C@@H]1[C@H](Nc2c(Br)cnc3[nH]c(-c4ccc(C(F)(F)F)nc4)nc23)[C@H]2C=C[C@@H]1C2 [Compound CXXXIX, (1S,2S,3R,4R)-3-[6-Bromo-2-(6-trifluoromethyl-pyridin-3-yl)-3H-imidazo[4,5-b]pyridin-7-ylamino]-bicyclo[2.2.1]hept-5-ene-2-carboxylic acid amide] |  |
| < 100 nM | < 100 nM and 100 to 1000 nM | NC(=O)[C@@H]1[C@H](Nc2c(Cl)cnc3[nH]c(-c4cccc(OCCN5CCOCC5)c4)nc23)[C@H]2C=C[C@@H]1C2 [Compound CCXXXVII, (1S,2S,3R,4R)-3-(6-chloro-2-(3-(2-morpholinoethoxy)phenyl)-3H-imidazo[4,5-b]pyridine-7-ylamino)pyridin[2.2.1]hept-5-ene-2-carboxamide] |  |
| < 100 nM | < 100 nM | CN(C)CCOc1ccc(-c2nc3c(N[C@H]4[C@@H](C(N)=O)[C@@H]5C=C[C@H]4C5)c(Cl)cnc3[nH]2)cc1 [Compound CCXLIX, (1S,2S,3R,4R)-3-(6-chloro-2-(4-(2-(dimethylamino)ethoxy)phenyl)-3H-imidazo[4,5-b]pyridin-7-ylamino)bicyclo[2.2.1]hept-5-ene-2-carboxamide] |  |
| < 100 nM | < 100 nM | NC(=O)[C@@H]1[C@H](Nc2c(Br)cnc3[nH]c(-c4ccccc4F)nc23)[C@H]2C=C[C@@H]1C2 [Compound CXXXI, (1S,2S,3R,4R)-3-[6-Bromo-2-(2-fluoro-phenyl)-3H-imidazo[4,5-b]pyridin-7-ylamino]-bicyclo[2.2.1]hept-5-ene-2-carboxylic acid amide] |  |
